Columns and labels:
Caco-2 cells = type: in vitro ADME; conditions: human, Caco-2, 4 h
Text: An in vitro digestion coupled with intestinal culture model was developed to mimic the in vivo absorption of carotenoids. It is important to note that absorption as determined by in vitro digestion is highly correlated with data derived by sampling small intestinal luminal contents from human subjects fed carotenoid rich vegetables and bioavailability data from published human studies.
The interactions among beta-carotene (B), lutein (L), and astaxanthin (A) or astaxanthin ester (AE) were examined using the coupled simulated digestion/Caco-2 cell model. Cellular carotenoids after four hour incubation with micelles generated during simulated digestion of carotenoid-rich oil are presented in Table 2 below.
Simulated digestion: Non-fat yogurt (2.7 g) was homogenized in 10 mL 120 mM salt solution. The mixture was transferred to 50 mL glass test tube. Carotenoid rich oil was carefully added for each reaction (6 replicates per test oil), and total volume of oil was adjusted to 300 μL using soybean oil. The procedure for the simulated digestion followed the standard protocol (See Failla M L., Chitchumroonchokchai C. (2005) In vitro models as tools for screening the relative bioavailabilities of provitamin A carotenoids in foods. HarvestPlus Technical Monograph Series 3. 32 p. www.harvestplus.org/pdfs/tech03.pdf), except that reactions contained pancreatic enzymes and bile extract. […] After completing gastric and small intestinal digestion, an aliquot (9 ml.) of digesta was centrifuged at 12,000×g, 4° C. for 45 min. to isolate aqueous fraction containing micellar carotenoids from residual undigested materials. The aqueous fraction was passed through syringe filter (0.22 μm) to determine carotenoids that partitioned into either aqueous or micellar phase. Aliquots of digesta and aqueous fraction were stored at −20° C. for a maximum of one week before extraction. Beta-carotene and lutein was quantified according to Chitchumrronchokchai et al. (See Chitchumroonchokchai C., Schwartz S J., Failla M L. Assessment of lutein bioavailability from meals and supplement using simulated digestion and Caco-2 human intestinal cells. J Nutr. 2004; 134:2280-2286), and astaxanthin was measured as described in Lin W C et al. (Lin W C, Chien J T, Chen B H. Determination of carotenoids in spear shrimp shells (Parapenaeopsis hardwickii) by liquid chromatography. J Agric Food Chem. 2005 Jun. 29; 53(13):5144-9).
Cell uptake of carotenoids from micelles generated during digestion of oil enriched with individual carotenoids or mixtures of carotenoids: Caco-2 cells (HTB37; passages 25-28) obtained from ATCC ([…]) at passage 19 were maintained in 6-well plastic dishes. The cells were cultured in complete DMEM plus 15% heat inactivated FBS during replication phase. […]

[1] = system: Caco-2 human intestinal cells; type: in vitro ADME; conditions: Caco-2, 18 h
Method: The interactions among beta-carotene (B), lutein (L), and astaxanthin (A) were examined using a Caco-2 cell model.
Caco-2 human intestinal cells were grown and maintained on transwell inserts (3.0 μm pores) according to protocol in Failla M L., Chitchumroonchokchai C. (2005) In vitro models as tools for screening the relative bioavailabilities of provitamin A carotenoids in foods. HarvestPlus Technical Monograph Series 3. 32 p. www.harvestplus.org/pdfs/tech03.pdf. Cultures were used at 21 days post-confluency (dpc).
The stock synthetic micelles (SM) containing either β-carotene (B), lutein (L), or astaxanthin (A) was prepared as described by Chitchumroonchokchai et al. (2004).
Treated cells were incubated in humidified environment of 95% air, 5% CO2 at 37° C. for 18 hours before spent medium in apical chamber (AP) and basolateral medium (BL) were collected. All samples were frozen at −80° C. under nitrogen until analysis. Carotenoid analysis in media and cells were quantified as described by Chitchumroonchokchai (See Chitchumroonchokchai C., Schwartz S J., Failla M L. Assessment of lutein bioavailability from meals and supplement using simulated digestion and Caco-2 human intestinal cells. J Nutr. 2004; 134:2280-2286). Protein content of cells was determined by the bicinchoninic acid assay (Pierce—www.piercenet.com/files/1296 as8.pdf). […]

% Carotenoid Cellular Uptake, L (Caco-2 cells) [%] | % Increase in Carotenoid Cellular Uptake, L (Caco-2 cells) [%] | % Increase in Carotenoid Cellular Uptake Compared to Single Carotenoid, L [1] [%] | % Carotenoid Cellular Uptake, B (Caco-2 cells) [%] | % Increase in Carotenoid Cellular Uptake, B (Caco-2 cells) [%] | % Increase in Carotenoid Cellular Uptake Compared to Single Carotenoid, B [1] [%] | Structure (SMILES)
6.02 | 0.00 | 0.00 | – | – | – | CC1=C[C@H](O)CC(C)(C)[C@H]1/C=C/C(C)=C/C=C/C(C)=C/C=C/C=C(C)/C=C/C=C(C)/C=C/C1=C(C)C[C@@H](O)CC1(C)C [Lutein, lutein]
– | – | – | 5.70 | 0.00 | 0.00 | CC1=C(/C=C/C(C)=C/C=C/C(C)=C/C=C/C=C(C)/C=C/C=C(C)/C=C/C2=C(C)CCCC2(C)C)C(C)(C)CCC1 [Beta-carotene, beta-carotene]
